This note sets out measurements from patent US5567693A, “Method for inhibiting angiogenesis, proliferation of endothelial or tumor cells and tumor growth” (American Cyanamid Company, priority 1994, dated 1996).

Structures can show the parent of a compound that is named as a salt. Where two headings read alike, the source gives them in different places.

Common to all, as to assay type: cell-based
The subject of one test is Human Tumor cell lines. Nature of the test: Antiproliferative activity in the panel of human tumor cell lines. As to conditions: for IC50: Homo sapiens, average over the 6 tumor cell lines. As for the experimental part:
(§1) The antiproliferative activity of the compounds of Formula I in an Adult Bovine Aortic Endothelial (ABAE) cell line and in Human Tumor cell lines is evaluated in three similar assays that measure growth inhibition. The assays are identified as follows:
(§2) PROTOCOL 1,2,and 3 are described in greater detail hereinbelow. In general, according to PROTOCOLS 1 and 2, the target ABAE and/or Human Tumor cells are exposed to the compounds of Formula I for 48 hours. PROTOCOL 3 exposes ABAE cells to the compounds for 4 days. A detailed description of the protocols is as follows:
(§3) The antiproliferative activity of the compounds of Formula I of the present invention is evaluated in a panel comprised of human tumor cell lines and an adult bovine aortic endothelial cell line (ABAE). The human tumor cell lines are from
(§4) All cell lines are maintained in log phase in RPMI 1640 media, supplemented with 5% fetal calf serum, penicillin/streptomycin and 2 mM L-glutamine. Cultures are renewed after 20 passages with cells from a fresh stock of batch-frozen early passage cells. Cell lines are routinely checked for mycoplasma contamination (Genprobe). In a laminar flow hood, cells (1-5×10^4) are plated into 96-well microtiter plates in a volume of 0.1 ml/well with a bulk microtiter dispenser (Denley). […] At this concentration, dimethylsulfoxide has no effect on cell growth. Compounds are added using a Tomtec dispenser which simultaneously dispenses from one 96-well plate, containing the drug dilutions, to the plates containing the cells. After two days of continuous drug exposure, 50% cold trichloroacetic acid (TCA) is added to 10% final concentration to fix the cells, and after 60 minutes at 4° C., the TCA is aspirated and the plates are washed 5 times with deionized water using a microtiter plate washer. The number of cells on the plate are quantitated using a protein dye-binding assay (Monks et al., 1991). A 0.4% solution of the dye, sulforhodamine B, in glacial acetic acid is added to the plates, and the plates are washed 5 times with 1% glacial acetic acid using the automatic plate washed. The bound stain is solubilized with 0.1 ml of 10 mM Tris base. The optical densities are read from an automatic spectrophotometric plate reader (Dynatech) directly to a main frame computer (VAX 8600).
(§5) Positive controls, that include standard chemotherapeutic drugs (i.e., Adriamycin, Cisplatin, etc.), are included in every experiment.
(§6) Background optical density measurements (complete media-cells, and complete media+drug-cells) are automatically subtracted from the appropriate control and test wells. Mean values and standard errors are determined from duplicate wells. A measure is also made of the optical density at time when the drugs are added. The number of cells after treatment (P), as % of control, is calculated for every concentration of drug, as follows: [formula] wherein: T is optical density measurement for treated cells after 48 hours;
(§7) C is optical density measurement for untreated cells after 48 hours;
(§8) Co is optical density measurement for cells at the time of drug addition.
(§9) IC50 of growth inhibition is calculated from the sets of P values using the RS-1 data package (BBN Software).
(§10) The antiproliferative activity of the compounds of Formula I is evaluated in a panel comprised of human tumor cell lines and an adult bovine aortic cell line (ABAE) as listed in PROTOCOL 1. This assay is a modification of PROTOCOL 1. The modifications include:
(§11) 1) each concentration for each compound is tested in a single well;
(§12) 2) compounds are tested at 20, 4, 0.8, 0.16 microgram/ml and additionally in some experiments at 100 and 0.32 microgram/ml;
(§13) 3) samples are pipetted into a 96-well plate for each of the cell lines by a Beckman Biomek 1000 SL robot;
(§14) 4) after fixing with TCA each well is washed with 0.35 ml distilled water twice, not five times;
(§15) 5) after staining with sulforhodamine B each well is washed 3 times, not five times; […]

Test [1] has as its system Adult Bovine Aortic Endothelial (ABAE) cell line. Description: Antiproliferative activity in ABAE cell line, PROTOCOL 3 (4 day assay). As for the experimental part:
as §1, §2
Antiproliferative Activity in Adult Bovine Aortic Endothelial (ABAE) Cell Line
ABAE cells are grown in DMEMmedia (Mediatech, Washington, D.C.) supplemented with 10% calf serum (Hyclone). ABAE cells are plated in 24-well dishes at 8,000 cells/well, followed by the addition of increasing concentrations of 7-(hydrogen or di(C1 -C4)alkylamino)-8-halogen-9-(substituted)-6-demethyl-6-deoxytetracycline. After four days, the cells are detached and counted. […] The growth inhibition (I) as % of control is calculated as follows: [formula] wherein: Nc is the number of cells in untreated wells;
Nt is the number of cells in treated wells;
No is the number of plated cells.
IC50 of growth inhibition is determined from the sets of I values plotted by Kaleidograph software (Abelbeck Software).
In addition FIG. 1, presents the dose response curve for the compound of Example 10 for the above ABAE cell line obtained by using PROTOCOL 3.

For a further test, the system named is CACO2. Description: Antiproliferative activity in human tumor cell lines: CACO2 (colon). The note with it: Homo sapiens. As for the experimental part: as §1, §2, §3, §4, §5, §6, §7, §8, §9, §10, §11, §12, §13, §14, §15
A further test relates to A2780S. Description: Antiproliferative activity in human tumor cell lines: A2780S (ovarian). The note with it: PROTOCOL 1 and PROTOCOL 2, 48 hours. As for the experimental part:
(§16) The assays are identified as follows:
as §2, §3
(§17) Cultures are renewed after 20 passages with cells from a fresh stock of batch-frozen early passage cells. Cell lines are routinely checked for mycoplasma contamination (Genprobe). In a laminar flow hood, cells (1-5×10^4) are plated into 96-well microtiter plates in a volume of 0.1 ml/well with a bulk microtiter dispenser (Denley). […] Compounds are added using a Tomtec dispenser which simultaneously dispenses from one 96-well plate, containing the drug dilutions, to the plates containing the cells. After two days of continuous drug exposure, 50% cold trichloroacetic acid (TCA) is added to 10% final concentration to fix the cells, and after 60 minutes at 4° C., the TCA is aspirated and the plates are washed 5 times with deionized water using a microtiter plate washer. […] A 0.4% solution of the dye, sulforhodamine B, in […] is added to the plates, and the plates are washed 5 times with 1% glacial acetic acid using the automatic plate washed. The bound stain is solubilized with 0.1 ml of 10 mM Tris base. The optical densities are read from an automatic spectrophotometric plate reader (Dynatech) directly to a main frame computer (VAX 8600).
as §5, §6, §7, §8, §9, §10, §11, §12, §13, §14
(§18) 5) after staining with sulforhodamine B each well is washed 3 times, not five times;
(§19) 6) the growth inhibition (I) as % of control, is calculated using the RS-1 data package (BBN Software), for every concentration of drug, as follows: [formula] wherein: T is optical density measurement for treated cells after 48 hours;
(§20) 7) IC50 of growth inhibition is determined graphically from dose response curves, as is known in the art.

The next test has as its system A2780/DDP. Nature of the test: Antiproliferative activity in human tumor cell lines: A2780/DDP (ovarian). The note with it: PROTOCOL 1 and PROTOCOL 2, 48 hours. As for the experimental part:
as §16, §2, §3, §17, §5, §6, §7, §8, §9, §10, §11, §12, §13, §14, §18, §19, §20

Setting [2] is: Caco-2, CACO2 colon tumor, PROTOCOL 1 and PROTOCOL 2, 48 hours, read-out: IC50.

Consider `CN(C)[C@@H]1C(O)=C(C(N)=O)C(=O)[C@@]2(O)C(O)=C3C(=O)c4c(cc(Cl)c(NC(=O)CN5CCCCC5)c4O)CC3CC12` (stereo partly drawn) [Example 10, 7S-(7α,10aα)]-N-[9-(Aminocarbonyl)-3-chloro-7-(dimethylamino)-5,5a,6,6a,7,10,10a,12-octahydro-1,8,10a,11-tetrahydroxy-10,12-dioxo-2-naphthacenyl]-1-piperidineacetamide dihydrochloride], for which the IC50 in the test on Human Tumor cell lines was 0.6 µg/mL; in test [1] (Bos taurus, 96 h, PROTOCOL 3, 4 day assay, read-out: inhibits 50% of cell growth) it was approximately 0.4 µg/mL; in the test on CACO2 (setting [2]), 0.65 µg/mL; in the test with A2780S, 0.5 µg/mL; in the test on A2780/DDP it was 0.6 µg/mL. The “activity upon incubation with cells” value in test [1] (4 day assay (PROTOCOL 3)) is recorded as “retains its activity”.

As to `CNCC(=O)Nc1c(Cl)cc2c(c1O)C(=O)C1=C(O)[C@]3(O)C(=O)C(C(N)=O)=C(O)[C@@H](N(C)C)C3CC1C2` (stereo partly drawn) [Example 7, [4S-(4α, 12aα)]-8-Chloro-4-(dimethylamino)-1,4,4a,5,5a,6,11,12a-octahydro-3,10,12,12a-tetrahydroxy-1,11-dioxo-9-[[(methylamino)acetyl]amino]-2-naphthacenecarboxamide dihydrochloride], the IC50 stood at 4.3 µg/mL in the test on Human Tumor cell lines, 3.8 µg/mL in the test with CACO2 (setting [2]), 4.6 µg/mL with A2780S and 3.8 µg/mL in the test with A2780/DDP.

Regarding `CN(C)CC(=O)Nc1c(Cl)cc2c(c1O)C(=O)C1=C(O)[C@]3(O)C(=O)C(C(N)=O)=C(O)[C@@H](N(C)C)C3CC1C2` (stereo partly drawn) [Example 3, [4S-(45, 12aα)]-8-Chloro-4-(dimethylamino)-9[[(dimethylamino)acetyl]amino]-1,4,4a,5,5a,6,11,12a-octahydro-3,10,12,12a-tetrahydroxy-1,11-dioxo-2-naphthacenecarboxamide disulfate], the IC50 in the test on Human Tumor cell lines came out at 1.9 µg/mL; with CACO2 (setting [2]), 1.65 µg/mL; with A2780S, 1.8 µg/mL; with A2780/DDP, 2.5 µg/mL.

For `CN(C)[C@@H]1C(O)=C(C(N)=O)C(=O)[C@@]2(O)C(O)=C3C(=O)c4c(cc(Cl)c(NC(=O)CN5CCCC5)c4O)CC3CC12` (stereo partly drawn) [Example 9, [7S-(7α,10aα)]-N-[9-(Aminocarbonyl)-3-chloro-7-(dimethylamino)-5,5a,6,6a,7,10,10a,12-octahydro-1,8,10a,11-tetrahydroxy-10,12-dioxo-2-naphthacenyl]-1-pyrrolidineacetamide dihydrochloride], the IC50 was 1.45 µg/mL with Human Tumor cell lines, 1.7 µg/mL with CACO2 (setting [2]), 1.3 µg/mL with A2780S and 1 µg/mL in the test with A2780/DDP.

Turning to `CCCNCC(=O)Nc1c(Cl)cc2c(c1O)C(=O)C1=C(O)[C@]3(O)C(=O)C(C(N)=O)=C(O)[C@@H](N(C)C)C3CC1C2` (stereo partly drawn) [Example 5, [4S-(4α, 12aα)]-8-Chloro-4-(dimethylamino)-1,4,4a,5,5a, 6,11,12a-octahydro-3,10,12,12a-tetrahydroxy-1,11-dioxo-9-[[(propylamino)acetyl]amino]-2-naphthacenecarboxamide dihydrochloride], in the test on Human Tumor cell lines (FIG. 2, 6 Human Tumor cell lines, highest concentrations), the “inhibition of cell growth at the highest concentrations” value is “no 100% inhibition of cell growth”. Moreover, the IC50 worked out at 4.6 µg/mL with Human Tumor cell lines; 4 µg/mL with CACO2 (Caco-2, 48 h); 3 µg/mL in the test with A2780S; 3 µg/mL in the test with A2780/DDP. Also, the Dead floating cells result in the test on Human Tumor cell lines (at the highest concentration) is on record as “not observed”.

On to `CN(C)c1c(Cl)cc(O)c2c1CC1CC3[C@H](N(C)C)C(O)=C(C(N)=O)C(=O)[C@@]3(O)C(O)=C1C2=O` (stereo partly drawn) [Example 11, [4S-(4α,12aα)]-8-Chloro-4,7-bis(dimethylamino)-1,4,4a,5,5a,6,11,12a-octahydro-3,10,12,12a-tetrahydroxy-1,11-dioxo-2-naphthacenecarboxamide sulfate], for which the IC50 in the test with Human Tumor cell lines came out at 2.8 µg/mL; in the test on CACO2 (setting [2]) it was 3.6 µg/mL; in the test on A2780S, 1.6 µg/mL; in the test with A2780/DDP it was 3.85 µg/mL.

As for `CCCCCNCC(=O)Nc1c(Cl)cc2c(c1O)C(=O)C1=C(O)[C@]3(O)C(=O)C(C(N)=O)=C(O)[C@@H](N(C)C)C3CC1C2` (stereo partly drawn) [Example 6, [4S-(4α, 12aα)]-8-Chloro-4-(dimethylamino)-1,4,4a,5,5a,6,11,12a-octahydro-3,10,12,12a-tetrahydroxy-1,11-dioxo-9-[[(pentylamino)acetyl]amino]-2-naphthacenecarboxamide dihydrochloride], the IC50 in the test with Human Tumor cell lines was 0.8 µg/mL; in the test with CACO2 (setting [2]), 0.7 µg/mL; in the test with A2780S, 0.5 µg/mL; in the test on A2780/DDP, 0.7 µg/mL.

`CCCCNCC(=O)Nc1c(Cl)cc2c(c1O)C(=O)C1=C(O)[C@]3(O)C(=O)C(C(N)=O)=C(O)[C@@H](N(C)C)C3CC1C2` (stereo partly drawn) [Example 4, [4S-(4α, 12aα)]-9-[[(Butylamino)acetyl]amino]-8-chloro-4-(dimethylamino) -1,4,4a,5,5a,6,11,12a-octahydro-3,10,12,12a-tetrahydroxy-1,11-dioxo-2-naphthacenecarboxamide dihydrochloride]: the IC50 in the test with Human Tumor cell lines was 2.5 µg/mL; in the test on CACO2 (setting [2]), 2.5 µg/mL; in the test with A2780S, 2.5 µg/mL; with A2780/DDP, 2.8 µg/mL.

Consider `CN(C)[C@@H]1C(O)=C(C(N)=O)C(=O)[C@@]2(O)C(O)=C3C(=O)c4c(cc(Cl)c(NC(=O)CNCC5CC5)c4O)CC3CC12` (stereo partly drawn) [Example 8, [4S-(4α,12aα)]-8-Chloro-9-[[(cyclopropylmethylamino)-acetyl]amino]4-(dimethylamino)-1,4,4a,5,5a,6,11,12a-octahydro-3,10,12,12a-tetrahydroxy-1,11-dioxo-2-naphthacenecarboxamide dihydrochloride], for which the IC50 in the test on Human Tumor cell lines came to 2.45 µg/mL; in the test on CACO2 (setting [2]), 2.8 µg/mL; in the test with A2780S it was 2.2 µg/mL; in the test on A2780/DDP, 2.5 µg/mL.
